{
  "source": "patent US8952024B2",
  "about": "“Herbicidal pyrimidone derivatives” (E I du Pont de Nemours and Company, priority 2009, dated 2015)",
  "assay_in_all_cases": "Test B pre-/postemergence plant response",
  "assay_type_in_all_cases": "in vivo",
  "key": {"[1]": {"test_system": "ragweed (common ragweed, Ambrosia elatior)", "how_it_was_run": "(§1)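 Pre-em in loam/sand; post-em at 1–4 leaf (2–18 cm) in peat mix. Solvent + surfactant formulation. Greenhouse 13–15 d; visual % control vs untreated, 0–100.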"}, "soybean (Glycine max)": {"test_system": "soybean (Glycine max)", "how_it_was_run": "as §1"}, "[2]": {"test_system": "velvetleaf (Abutilon theophrasti)", "how_it_was_run": "as §1"}, "[3]": {"test_system": "lambsquarters (Chenopodium album)", "how_it_was_run": "as §1"}, "[4]": {"test_system": "Italian ryegrass (Lolium multiflorum)", "how_it_was_run": "as §1"}, "[5]": {"test_system": "bermudagrass (Cynodon dactylon)", "how_it_was_run": "as §1"}, "kochia (Kochia scoparia)": {"test_system": "kochia (Kochia scoparia)", "how_it_was_run": "as §1"}, "[6]": {"test_system": "blackgrass (Alopecurus myosuroides)", "how_it_was_run": "as §1"}, "wild oat (Avena fatua)": {"test_system": "wild oat (Avena fatua)", "how_it_was_run": "as §1"}, "[7]": {"test_system": "large crabgrass (Digitaria sanguinalis)", "how_it_was_run": "as §1"}, "[8]": {"test_system": "pigweed (Amaranthus retroflexus)", "how_it_was_run": "as §1"}, "[9]": {"test_system": "cocklebur (Xanthium strumarium)", "how_it_was_run": "as §1"}, "corn (Zea mays)": {"test_system": "corn (Zea mays)", "how_it_was_run": "as §1"}, "[10]": {"test_system": "downy bromegrass (Bromus tectorum)", "how_it_was_run": "as §1"}, "[11]": {"test_system": "Surinam grass (Brachiaria decumbens)", "how_it_was_run": "as §1"}, "[12]": {"test_system": "green foxtail (Setaria viridis)", "how_it_was_run": "as §1"}, "[13]": {"test_system": "yellow nutsedge (Cyperus esculentus)", "how_it_was_run": "as §1"}, "[14]": {"settings": "31 g ai/ha, postemergence, scale 0 to 100, 0 is no effect, 100 is complete control"}, "[15]": {"settings": "62 g ai/ha, postemergence, 0 is no effect, 100 is complete control, 13 to 15 days"}, "[16]": {"settings": "Postemergence, 250 g ai/ha, scale 0 to 100 (0 no effect, 100 complete control)"}, "[17]": {"settings": "Postemergence, 125 g ai/ha, visual rating after 13 to 15 days, scale 0 (no effect) to 100 (complete control)"}},
  "data": [
    {"smiles": "CCCn1c(-c2ccsc2)ncc(C(=O)C2=C(O)CCCC2=O)c1=O", "note": "[Compound 93]", "values": [
      {"measurement": "Plant response rating, Ragweed", "setting": "[1]; [14]", "result": 65},
      {"measurement": "Ragweed plant response rating (0 to 100 scale)", "setting": "[1]; [15]", "result": 75},
      {"measurement": "Plant response rating, Ragweed", "setting": "[1]; [16]", "result": 98},
      {"measurement": "Plant response rating, Soybean", "setting": "soybean (Glycine max); [14]", "result": 55},
      {"measurement": "Soybean plant response rating (0 to 100 scale)", "setting": "soybean (Glycine max); [15]", "result": 80},
      {"measurement": "Plant response rating, Soybean", "setting": "soybean (Glycine max); [16]", "result": 98},
      {"measurement": "Plant response rating, Velvetleaf", "setting": "[2]; [14]", "result": 85},
      {"measurement": "Velvetleaf plant response rating (0 to 100 scale)", "setting": "[2]; [15]", "result": 90},
      {"measurement": "Plant response rating, Velvetleaf", "setting": "[2]; [16]", "result": 98},
      {"measurement": "Plant response rating, Lambsquarters", "setting": "[3]; [14]", "result": 85},
      {"measurement": "Lambsquarters plant response rating (0 to 100 scale)", "setting": "[3]; [15]", "result": 95},
      {"measurement": "Plant response rating, Lambsquarters", "setting": "[3]; [16]", "result": 98},
      {"measurement": "Plant response rating, Ryegrass, Italian", "setting": "[4]; [14]", "result": 0},
      {"measurement": "Ryegrass, Italian plant response rating (0 to 100 scale)", "setting": "[4]; [15]", "result": 0},
      {"measurement": "Plant response rating, Ryegrass, Italian", "setting": "[4]; [16]", "result": 0},
      {"measurement": "Plant response rating, Bermudagrass", "setting": "[5]; [14]", "result": 60},
      {"measurement": "Bermudagrass plant response rating (0 to 100 scale)", "setting": "[5]; [15]", "result": 75},
      {"measurement": "Plant response rating, Bermudagrass", "setting": "[5]; [17]", "result": 85},
      {"measurement": "Plant response rating, Bermudagrass", "setting": "[5]; [16]", "result": 85},
      {"measurement": "Plant response rating, Kochia", "setting": "kochia (Kochia scoparia); [14]", "result": 65},
      {"measurement": "Kochia plant response rating (0 to 100 scale)", "setting": "kochia (Kochia scoparia); [15]", "result": 85},
      {"measurement": "Plant response rating, Kochia", "setting": "kochia (Kochia scoparia); [16]", "result": 98},
      {"measurement": "Plant response rating, Blackgrass", "setting": "[6]; [14]", "result": 0},
      {"measurement": "Blackgrass plant response rating (0 to 100 scale)", "setting": "[6]; [15]", "result": 5},
      {"measurement": "Plant response rating, Blackgrass", "setting": "[6]; [17]", "result": 30},
      {"measurement": "Plant response rating, Blackgrass", "setting": "[6]; [16]", "result": 30},
      {"measurement": "Plant response rating, Oat, Wild", "setting": "wild oat (Avena fatua); [14]", "result": 0},
      {"measurement": "Oat, Wild plant response rating (0 to 100 scale)", "setting": "wild oat (Avena fatua); [15]", "result": 0},
      {"measurement": "Plant response rating, Oat, Wild", "setting": "wild oat (Avena fatua); [16]", "result": 5},
      {"measurement": "Plant response rating, Crabgrass, Large", "setting": "[7]; [14]", "result": 70},
      {"measurement": "Crabgrass, Large plant response rating (0 to 100 scale)", "setting": "[7]; [15]", "result": 80},
      {"measurement": "Plant response rating, Crabgrass, Large", "setting": "[7]; [17]", "result": 80},
      {"measurement": "Plant response rating, Crabgrass, Large", "setting": "[7]; [16]", "result": 90},
      {"measurement": "Plant response rating, Pigweed", "setting": "[8]; [14]", "result": 90},
      {"measurement": "Pigweed plant response rating (0 to 100 scale)", "setting": "[8]; [15]", "result": 95},
      {"measurement": "Plant response rating, Pigweed", "setting": "[8]; [16]", "result": 100},
      {"measurement": "Plant response rating, Cocklebur", "setting": "[9]; [14]", "result": 70},
      {"measurement": "Cocklebur plant response rating (0 to 100 scale)", "setting": "[9]; [15]", "result": 90},
      {"measurement": "Plant response rating, Cocklebur", "setting": "[9]; [17]", "result": 95},
      {"measurement": "Plant response rating, Cocklebur", "setting": "[9]; [16]", "result": 98},
      {"measurement": "Plant response rating, Corn", "setting": "corn (Zea mays); [14]", "result": 0},
      {"measurement": "Corn plant response rating (0 to 100 scale)", "setting": "corn (Zea mays); [15]", "result": 45},
      {"measurement": "Plant response rating, Corn", "setting": "corn (Zea mays); [17]", "result": 50},
      {"measurement": "Plant response rating, Corn", "setting": "corn (Zea mays); [16]", "result": 60},
      {"measurement": "Plant response rating, Bromegrass, Downy", "setting": "[10]; [14]", "result": 0},
      {"measurement": "Bromegrass, Downy plant response rating (0 to 100 scale)", "setting": "[10]; [15]", "result": 0},
      {"measurement": "Plant response rating, Bromegrass, Downy", "setting": "[10]; [17]", "result": 0},
      {"measurement": "Plant response rating, Bromegrass, Downy", "setting": "[10]; [16]", "result": 0},
      {"measurement": "Plant response rating, Surinam Grass", "setting": "[11]; [14]", "result": 50},
      {"measurement": "Surinam Grass plant response rating (0 to 100 scale)", "setting": "[11]; [15]", "result": 65},
      {"measurement": "Plant response rating, Surinam Grass", "setting": "[11]; [16]", "result": 70},
      {"measurement": "Plant response rating, Foxtail, Green", "setting": "[12]; [14]", "result": 50},
      {"measurement": "Foxtail, Green plant response rating (0 to 100 scale)", "setting": "[12]; [15]", "result": 60},
      {"measurement": "Plant response rating, Foxtail, Green", "setting": "[12]; [16]", "result": 90},
      {"measurement": "Plant response rating, Nutsedge, Yellow", "setting": "[13]; [14]", "result": 45},
      {"measurement": "Nutsedge, Yellow plant response rating (0 to 100 scale)", "setting": "[13]; [15]", "result": 60},
      {"measurement": "Plant response rating, Nutsedge, Yellow", "setting": "[13]; [16]", "result": 70}
    ]}
  ]
}
